According to the supplement of paper PMC11451515:

Tested on: SEM cells
Experiment: cell viability relative to DMSO control; higher = less cytotoxic
Conditions: 48 h
In short: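 Before seeding, each leukemia line was adapted for at least four passages in each medium. NOMO1 or SEM cells (500 cells/well) and P12-Ichikawa cells (1000 cells/well) went into 1536-well plates at 5 μl, then received library compounds in DMSO by pin dosing across 11 threefold concentrations, 47 μM to 0.79 nM. Readout was CellTiter-Glo One luminescence after 48 h at 37°C, and viability is given as a per-plate percentage of DMSO wells, with cell-free wells as background.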

[1] = HPLM + 10% dialyzed FBS, 0.000781 µM
[2] = HPLM + 10% dialyzed FBS, 0.00234 µM
[3] = HPLM + 10% dialyzed FBS, 0.00702 µM
[4] = HPLM + 10% dialyzed FBS, 0.0211 µM
[5] = HPLM + 10% dialyzed FBS, 0.0632 µM
[6] = HPLM + 10% dialyzed FBS, 0.19 µM
[7] = HPLM + 10% dialyzed FBS, 0.569 µM
[8] = HPLM + 10% dialyzed FBS, 1.71 µM
[9] = HPLM + 10% dialyzed FBS, 5.12 µM
[10] = HPLM + 10% dialyzed FBS, 15.4 µM
[11] = HPLM + 10% dialyzed FBS, 46.1 µM
[12] = RPMI 5 mM glucose + 10% FBS, 0.000781 µM
[13] = RPMI 5 mM glucose + 10% FBS, 0.00234 µM
[14] = RPMI 5 mM glucose + 10% FBS, 0.00702 µM
[15] = RPMI 5 mM glucose + 10% FBS, 0.0211 µM
[16] = RPMI 5 mM glucose + 10% FBS, 0.0632 µM
[17] = RPMI 5 mM glucose + 10% FBS, 0.19 µM
[18] = RPMI 5 mM glucose + 10% FBS, 0.569 µM
[19] = RPMI 5 mM glucose + 10% FBS, 1.71 µM
[20] = RPMI 5 mM glucose + 10% FBS, 5.12 µM
[21] = RPMI 5 mM glucose + 10% FBS, 15.4 µM
[22] = RPMI 5 mM glucose + 10% FBS, 46.1 µM
[23] = RPMI 5 mM glucose + 10% dialyzed FBS, 0.000781 µM
[24] = RPMI 5 mM glucose + 10% dialyzed FBS, 0.00234 µM
[25] = RPMI 5 mM glucose + 10% dialyzed FBS, 0.00702 µM
[26] = RPMI 5 mM glucose + 10% dialyzed FBS, 0.0211 µM
[27] = RPMI 5 mM glucose + 10% dialyzed FBS, 0.0632 µM
[28] = RPMI 5 mM glucose + 10% dialyzed FBS, 0.19 µM
[29] = RPMI 5 mM glucose + 10% dialyzed FBS, 0.569 µM
[30] = RPMI 5 mM glucose + 10% dialyzed FBS, 1.71 µM
[31] = RPMI 5 mM glucose + 10% dialyzed FBS, 5.12 µM
[32] = RPMI 5 mM glucose + 10% dialyzed FBS, 15.4 µM
[33] = RPMI 5 mM glucose + 10% dialyzed FBS, 46.1 µM

| Structure (SMILES) | cell viability [1] | cell viability [2] | cell viability [3] | cell viability [4] | cell viability [5] | cell viability [6] | cell viability [7] | cell viability [8] | cell viability [9] | cell viability [10] | cell viability [11] | cell viability [12] | cell viability [13] | cell viability [14] | cell viability [15] | cell viability [16] | cell viability [17] | cell viability [18] | cell viability [19] | cell viability [20] | cell viability [21] | cell viability [22] | cell viability [23] | cell viability [24] | cell viability [25] | cell viability [26] | cell viability [27] | cell viability [28] | cell viability [29] | cell viability [30] | cell viability [31] | cell viability [32] | cell viability [33] |
| --- | --- | --- | --- | --- | --- | --- | --- | --- | --- | --- | --- | --- | --- | --- | --- | --- | --- | --- | --- | --- | --- | --- | --- | --- | --- | --- | --- | --- | --- | --- | --- | --- | --- |
| CC[C@@]1(O)C(=O)OCC/2=C1/C=C3\N(CC4=CC5=CC(=CC=C5N=C34)O)C2=O | 120% | 128% | 120% | 104% | 58.8% | 20.9% | 18.9% | 8.26% | 7.73% | 6.07% | 5.91% | 79.1% | 81.5% | 73% | 70.2% | 22.6% | 11.6% | 9.45% | 6.47% | 5.43% | 3.87% | 4.1% | 99.6% | 112% | 114% | 93.1% | 43% | 17.9% | 13% | 7.18% | 6.51% | 6.28% | 4.96% |
| COc1cc2nc(N3CCN(C(=O)C4CCCO4)CC3)nc(N)c2cc1OC (stereo unspecified) | 74.1% | 117% | 97% | 118% | 109% | 117% | 122% | 114% | 116% | 119% | 113% | – | – | – | – | – | – | – | – | – | – | – | 84.6% | 125% | 110% | 124% | 134% | 142% | 27.4% | 134% | 162% | 148% | 128% |
| CCN(CC)CCCCNc1ncc2c(n1)N(C)C(=O)N(c1c(Cl)c(OC)cc(OC)c1Cl)C2 | 99.2% | 110% | 110% | 111% | 119% | 111% | 117% | 114% | 99.2% | 48.3% | 11.9% | 109% | 112% | 117% | 125% | 119% | 106% | 126% | 109% | 104% | 44.4% | 13.2% | 125% | 118% | 107% | 114% | 116% | 116% | 129% | 104% | 101% | 52.3% | 16.9% |
| Nc1cc(C(F)(F)F)c(-c2cc(N3CCOCC3)nc(N3CCOCC3)n2)cn1 | 118% | 121% | 99% | 113% | 113% | 88.5% | 72.2% | 43.4% | 14% | 6.54% | 5.09% | 88.9% | 89.2% | 88.1% | 102% | 90% | 64.2% | 75.6% | 27.4% | 6.68% | 3.92% | 2.34% | 113% | 131% | 121% | 123% | 118% | 91.1% | 74.1% | 37.6% | 14.6% | 5.59% | 3.9% |
